Laboratory results taken from US10206907B2, “Compounds useful for the treatment of degenerative and inflammatory diseases” (GALAPAGOS NV, priority 2008, dated 2019).
Read-outs that look alike come from different tables or passages of the source.

Legend:
[1] = target: Recombinant human JAK1 catalytic domain (Homo sapiens (Human), UniProt P23458); assay: JAK1 inhibition assay; format: biochemical
How it was run: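 Radiometric assay read by scintillation counting after phosphoric-acid washes. Percent inhibition calculated from cpm relative to vehicle and 10 μM staurosporine control. IC50 derived from compound dose-dilution series.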

[2] = target: Recombinant human JAK2 catalytic domain (Homo sapiens (Human), UniProt O60674); assay: JAK2 inhibition assay; format: biochemical
Chain of Recombinant human JAK2 catalytic domain (O60674 808-1132): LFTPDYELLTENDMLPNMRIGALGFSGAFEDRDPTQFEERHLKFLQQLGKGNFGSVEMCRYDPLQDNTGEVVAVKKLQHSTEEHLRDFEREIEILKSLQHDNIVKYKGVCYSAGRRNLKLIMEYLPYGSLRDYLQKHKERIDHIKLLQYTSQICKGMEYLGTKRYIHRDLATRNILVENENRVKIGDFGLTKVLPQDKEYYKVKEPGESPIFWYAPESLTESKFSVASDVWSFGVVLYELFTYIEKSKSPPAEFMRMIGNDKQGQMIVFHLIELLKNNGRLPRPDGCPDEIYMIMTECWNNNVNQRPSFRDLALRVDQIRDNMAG
How it was run: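 Radiometric kinase reactions ran for 90 min at 30 °C and were stopped with phosphoric acid, then washed and counted by scintillation. Percent inhibition was set relative to vehicle and to 10 μM staurosporine background. IC50 was derived from dose-dilution series.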

[3] = target: Recombinant human JAK3 catalytic domain (Homo sapiens (Human), UniProt P52333); assay: JAK3 inhibition assay; format: biochemical; conditions: semi-quantitative score
Chain of Recombinant human JAK3 catalytic domain (P52333 781-1124): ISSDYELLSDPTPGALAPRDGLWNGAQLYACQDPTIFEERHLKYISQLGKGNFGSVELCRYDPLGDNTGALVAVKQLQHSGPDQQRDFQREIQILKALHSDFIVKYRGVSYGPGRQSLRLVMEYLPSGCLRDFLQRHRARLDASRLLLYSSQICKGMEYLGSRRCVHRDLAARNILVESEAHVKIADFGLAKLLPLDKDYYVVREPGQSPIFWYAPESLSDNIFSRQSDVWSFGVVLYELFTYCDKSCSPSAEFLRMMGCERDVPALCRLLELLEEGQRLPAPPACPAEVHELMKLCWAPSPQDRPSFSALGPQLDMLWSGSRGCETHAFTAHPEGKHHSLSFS
Experimental: (§1) Plates were washed 6 times with 300 μL per well of a 75 mM phosphoric acid solution and the bottom of the plates was sealed. 40 μL/well of Microscint-20 was added, the top of the plates was sealed and readout was performed using the Topcount (Perkin Elmer). Kinase activity was calculated by subtracting counts per minute (cpm) obtained in the presence of a positive control inhibitor (10 μM staurosporine) from cpm obtained in the presence of vehicle. The ability of a test compound to inhibit this activity was determined as: Percentage inhibition=((cpm determined for sample with test compound present−cpm determined for sample with positive control inhibitor) divided by (cpm determined in the presence of vehicle−cpm determined for sample with positive control inhibitor))*100%.
Dose dilution series were prepared for the compounds enabling the testing of dose-response effects in the JAK3 assay and the calculation of the IC50 for each compound.

[4] = target: Recombinant human TYK2 catalytic domain (Homo sapiens (Human), UniProt P29597); assay: TYK2 inhibition assay; format: biochemical
Chain of Recombinant human TYK2 catalytic domain (P29597 871-1187): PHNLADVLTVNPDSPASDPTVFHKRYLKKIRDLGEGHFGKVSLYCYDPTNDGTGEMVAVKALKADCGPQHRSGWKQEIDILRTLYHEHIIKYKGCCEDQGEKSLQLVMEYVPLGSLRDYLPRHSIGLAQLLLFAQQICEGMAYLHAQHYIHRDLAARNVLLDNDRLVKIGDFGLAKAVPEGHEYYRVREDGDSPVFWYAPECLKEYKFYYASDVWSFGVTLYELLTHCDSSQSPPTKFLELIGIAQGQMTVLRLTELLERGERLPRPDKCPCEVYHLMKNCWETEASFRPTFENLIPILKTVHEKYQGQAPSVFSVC
Experimental: as §1, with “After 90 min at 30° C., reactions were stopped by adding of 25 μL/well of 150 mM phosphoric acid. […] Plates” for “Plates”
Dose dilution series were prepared for the compounds enabling the testing of dose-response effects in the TYK2 assay and the calculation of the IC50 for each compound.

[5] = tested on: JAK-STAT signalling in HeLa cells; assay: JAK-STAT signalling assay (OSM-triggered pSTAT1(2)-luciferase reporter in HeLa cells); format: cell-based; conditions: Homo sapiens; HeLa cells, OSM-triggered pSTAT1(2)-luciferase reporter; read-out: STAT signalling EC50
How it was run: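 HeLa cells transiently transfected with pSTAT1(2)-luciferase reporter plus LacZ internal control, incubated overnight at 37 °C, 10% CO2, then OSM-stimulated with compound. Luciferase read by Steadylite luminescence and normalised to β-galactosidase (ONPG); percent inhibition from controls, EC50 from dose-response.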

MMP13 in SW1353 cells = assay: OSM/IL-1β signaling assay (MMP13 levels in SW1353 cells); format: cell-based; conditions: Homo sapiens; SW1353 cells, OSM and IL-1β triggered, MMP13 levels 48 hours after triggering; read-out: MMP13 EC50;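 also: secreted MMP13 captured by antibody, activated with APMA and its activity read by fluorescence, inhibition scaled between vehicle-treated triggered wells (0%) and untriggered wells (100%)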
[6] = Microsomal stability, human liver microsomes; format: in vitro ADME; conditions: percentage of compound remaining after 60 minutes, 3 μM compound
How it was run: (§2)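 Compound was incubated with liver microsomes plus an NADP+/glucose-6-phosphate/G6PDH/MgCl2 regenerating system at 37°C for 1 h. Reactions were stopped 1:1 with MeOH or ACN and analysed by LCMS.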

[7] = Microsomal stability, rat liver microsomes; format: in vitro ADME; conditions: percentage of compound remaining after 60 minutes, 3 μM compound
How it was run: as §2

[8] = Caco2 permeability (bi-directional); format: in vitro ADME, human; conditions: human, pH 7.4; for Papp A→B at 1 h, 10 µM: Caco-2, apical to basolateral, read-out: Papp (A2B); for efflux ratio at 1 h, 10 µM: Caco-2, ratio of PappB>A/PappA>B
How it was run: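 Bidirectional transport across Caco-2 monolayers was run for 1 h at 37 °C with shaking, with 50 μM Lucifer Yellow in the donor to check monolayer integrity (acceptance ≤100 nm/s). Apical and basal compound levels were measured by LC-MS/MS, and efflux ratio was taken as PappB>A/PappA>B.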

Chain of Recombinant human JAK1 catalytic domain (P23458 850-1154): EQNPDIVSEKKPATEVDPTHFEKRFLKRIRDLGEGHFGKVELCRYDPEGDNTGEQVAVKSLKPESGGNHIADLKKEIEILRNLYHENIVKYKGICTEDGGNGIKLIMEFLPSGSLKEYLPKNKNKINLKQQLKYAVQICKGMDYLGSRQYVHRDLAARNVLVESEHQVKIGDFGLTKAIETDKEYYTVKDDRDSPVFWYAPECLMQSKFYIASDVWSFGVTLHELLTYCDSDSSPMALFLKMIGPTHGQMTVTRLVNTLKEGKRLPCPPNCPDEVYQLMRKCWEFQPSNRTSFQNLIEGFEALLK

Structure (SMILES)	IC50 ([1]; semi-quantitative score) [nM]	IC50 ([2]; semi-quantitative score) [nM]	IC50 [3] [nM]	IC50 ([4]; semi-quantitative score) [nM]	EC50 [5] [nM]	EC50 (MMP13 in SW1353 cells) [nM]	Microsomal Stability Human (%) [6]	Microsomal Stability Rat (%) [7]	Papp A→B at 1 h, 10 µM [8] [×10⁻⁶ cm/s]	efflux ratio at 1 h, 10 µM [8]	IC50 [1] [nM]	IC50 [2] [nM]	IC50 [4] [nM]
O=C(Nc1nc2cccc(-c3ccc(OCc4ccccc4)nc3)n2n1)C1CC1 [Compound 57, Cyclopropanecarboxylic Acid [5-(6-benzyloxy-pyridin-3-yl)-[1,2,4]triazolo[1,5-a]pyridin-2-yl]-amide]			501 to 1000		> 1000	> 1000	** (** 26-50)	** (** 26-50)			< 100	< 100	> 1000
O=C(Nc1ccccc1)c1ccc(-c2cccc3nc(NC(=O)C4CC4)nn23)cc1 [Compound 43, 4-(2-(cyclopropanecarboxamido)-[1,2,4]triazolo[1,5-a]pyridin-5-yl)-N-phenylbenzamide]	101 to 500		> 1000	> 1000			**** (**** 76-100)	**** (**** 76-100)					
CN1CCN(c2ccc(-c3cccc4nc(NC(=O)C5CC5)nn34)cc2)CC1 [Compound 1, N-(5-(4-(4-methylpiperazin-1-yl)phenyl)-[1,2,4]triazolo[1,5-a]pyridin-2-yl)cyclopropanecarboxamide]	101 to 500	501 to 1000	> 1000	> 1000									
O=C(Nc1nc2cccc(-c3ccc(NS(=O)(=O)c4ccccc4F)cc3)n2n1)C1CC1 [Compound 54, N-(5-(4-(2-fluorophenylsulfonamido)phenyl)-[1,2,4]triazolo[1,5-a]pyridin-2-yl)cyclopropanecarboxamide]	< 100	< 100	> 1000	101 to 500	> 1000	> 1000	**** (**** 76-100)	*** (*** 51-75)					
O=C(Nc1nc2cccc(-c3ccc4c(ccn4Cc4ccccc4)c3)n2n1)C1CC1 [Compound 121, Cyclopropanecarboxylic Acid [5-(1-benzyl-1H-indol-5-yl)-[1,2,4]triazolo[1,5-a]pyridin-2-yl]-amide]	< 100	< 100	501 to 1000	> 1000	501 to 1000	> 1000	* (* 0-25)	* (* 0-25)					
O=C(Nc1nc2cccc(-c3ccc(OCC4CCCCC4)cc3)n2n1)C1CC1 [Compound 41, N-(5-(4-(cyclohexylmethoxy)phenyl)-[1,2,4]triazolo[1,5-a]pyridin-2-yl)cyclopropanecarboxamide]	< 100	101 to 500		> 1000	501 to 1000	501 to 1000	** (** 26-50)	** (** 26-50)					
O=C(Nc1nc2cccc(-c3ccc(NCc4ccccc4)nc3)n2n1)C1CC1 [Compound 104, N-(5-(6-(benzylamino)pyridin-3-yl)-[1,2,4]triazolo[1,5-a]pyridin-2-yl)cyclopropanecarboxamide]	< 100	101 to 500	> 1000		> 1000	> 1000	* (* 0-25)	* (* 0-25)	28	0.9			
O=C(Nc1nc2cccc(-c3ccc(NS(=O)(=O)CCc4ccccc4)cc3)n2n1)C1CC1 [Compound 76, N-(5-(4-(2-phenylethylsulfonamido)phenyl)-[1,2,4]triazolo[1,5-a]pyridin-2-yl)cyclopropanecarboxamide]	< 100	< 100	101 to 500		501 to 1000	1 to 500	* (* 0-25)	* (* 0-25)	8.14	5.09			

Continued, in another order:

IC50 ([1]; semi-quantitative score) [nM]	IC50 ([2]; semi-quantitative score) [nM]	IC50 [3] [nM]	IC50 ([4]; semi-quantitative score) [nM]	EC50 [5] [nM]	EC50 (MMP13 in SW1353 cells) [nM]	Microsomal Stability Human (%) [6]	Microsomal Stability Rat (%) [7]	Papp A→B at 1 h, 10 µM [8] [×10⁻⁶ cm/s]	efflux ratio at 1 h, 10 µM [8]	Structure (SMILES)	IC50 [1] [nM]	IC50 [2] [nM]	IC50 [4] [nM]
< 100	< 100	101 to 500	> 1000	> 1000	> 1000	** (** 26-50)	* (* 0-25)			Cc1cc(COc2ccc(-c3cccc4nc(NC(=O)C5CC5)nn34)cc2)nn1C [Compound 62]			
< 100	< 100	> 1000	101 to 500	> 1000	> 1000	**** (**** 76-100)	** (** 26-50)			O=C(Nc1nc2cccc(-c3ccc(NS(=O)(=O)c4ccc(F)cc4)cc3)n2n1)C1CC1 [Compound 33, N-(5-(4-(4-fluorophenylsulfonamido)phenyl)-[1,2,4]triazolo[1,5-a]pyridin-2-yl)cyclopropanecarboxamide]			
< 100	101 to 500	> 1000	> 1000	> 1000	501 to 1000	* (* 0-25)	* (* 0-25)			O=C(Nc1nc2cccc(-c3ccc(C(=O)N4CCc5ccccc5C4)cc3)n2n1)C1CC1 [Compound 58]			
< 100	101 to 500	> 1000	> 1000	> 1000	> 1000	* (* 0-25)	* (* 0-25)			Cc1noc(C)c1COc1ccc(-c2cccc3nc(NC(=O)C4CC4)nn23)cc1 [Compound 49, N-(5-(4-((3,5-dimethylisoxazol-4-yl)methoxy)phenyl)-[1,2,4]triazolo[1,5-a]pyridin-2-yl)cyclopropanecarboxamide]			
< 100	101 to 500		501 to 1000	> 1000	> 1000	**** (**** 76-100)	* (* 0-25)			O=C(Nc1nc2cccc(-c3ccc(-c4cccnc4)cc3)n2n1)C1CC1 [Compound 66, N-(5-(4-(pyridin-3-yl)phenyl)-[1,2,4]triazolo[1,5-a]pyridin-2-yl)cyclopropanecarboxamide]			
< 100	101 to 500	> 1000	> 1000	> 1000	> 1000	**** (**** 76-100)	* (* 0-25)			O=C(NCc1ccccc1)c1ccc(-c2cccc3nc(NC(=O)C4CC4)nn23)cc1 [Compound 56, N-benzyl-4-(2-(cyclopropanecarboxamido)-[1,2,4]triazolo[1,5-a]pyridin-5-yl)benzamide]			
< 100	< 100	> 1000	> 1000	> 1000	> 1000	** (** 26-50)	** (** 26-50)			O=C(Nc1nc2cccc(-c3ccc(OCC4CCC4)cc3)n2n1)C1CC1 [Compound 39, N-(5-(4-(cyclobutylmethoxy)phenyl)-[1,2,4]triazolo[1,5-a]pyridin-2-yl)cyclopropanecarboxamide]			
< 100	101 to 500	501 to 1000	> 1000	> 1000	> 1000	*** (*** 51-75)	* (* 0-25)			O=C(COc1ccc(-c2cccc3nc(NC(=O)C4CC4)nn23)cc1)Nc1cccc(F)c1 [Compound 116, N-(5-(4-(2-(3-fluorophenylamino)-2-oxoethoxy)phenyl)-[1,2,4]triazolo[1,5-a]pyridin-2-yl)cyclopropanecarboxamide]			
